Data taken from ChEMBL document CHEMBL4007510, “N6-Substituted 5'-N-Methylcarbamoyl-4'-selenoadenosines as Potent and Selective A3 Adenosine Receptor Agonists with Unusual Sugar Puckering and Nucleobase Orientation” (J Med Chem, 2017).
Each block holds one molecule with its values, some of them ahead of it. The source made the active and inactive calls. No cut-off for these calls is given here.

Assays:
[1] = target: T1, Adenosine receptor A3 (Homo sapiens) (UniProt P0DMS8); assay: Agonist activity at human adenosine A3 receptor expressed in CHO cells assessed as decrease in forskolin induced cAMP formation preincubated for 10 mins followed by forskolin challenge measured after 15 mins by AlphaScreen assay relative to adenosine-5'-N- ethyluronamide; type: functional, cell-based; design: concentration or dose not given beside the values
T1 sequence (whole entry): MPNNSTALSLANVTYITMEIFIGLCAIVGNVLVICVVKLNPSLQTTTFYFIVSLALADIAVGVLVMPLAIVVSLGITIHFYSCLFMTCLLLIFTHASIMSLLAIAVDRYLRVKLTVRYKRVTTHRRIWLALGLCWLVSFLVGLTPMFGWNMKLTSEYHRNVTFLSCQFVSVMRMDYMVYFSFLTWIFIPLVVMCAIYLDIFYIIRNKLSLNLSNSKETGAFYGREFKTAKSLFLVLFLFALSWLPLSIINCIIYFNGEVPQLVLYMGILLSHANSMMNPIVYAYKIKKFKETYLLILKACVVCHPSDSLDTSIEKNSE

[2] = target: T2, Adenosine receptor A3 (Homo sapiens, UniProt P0DMS8); assay: Displacement of [125I]I-AB-MECA from human adenosine A3 receptor expressed in CHO cells after 60 mins by gamma counting analysis; type: cell-based
T2 sequence (P0DMS8 whole entry): T1 sequence (whole entry)

[3] = target: T3, Adenosine receptor A1 (Homo sapiens, UniProt P30542); assay: Displacement of […] from human adenosine A1 receptor expressed in CHO cells after 60 mins by liquid scintillation analyzer; type: cell-based
T3 sequence (P30542 whole entry): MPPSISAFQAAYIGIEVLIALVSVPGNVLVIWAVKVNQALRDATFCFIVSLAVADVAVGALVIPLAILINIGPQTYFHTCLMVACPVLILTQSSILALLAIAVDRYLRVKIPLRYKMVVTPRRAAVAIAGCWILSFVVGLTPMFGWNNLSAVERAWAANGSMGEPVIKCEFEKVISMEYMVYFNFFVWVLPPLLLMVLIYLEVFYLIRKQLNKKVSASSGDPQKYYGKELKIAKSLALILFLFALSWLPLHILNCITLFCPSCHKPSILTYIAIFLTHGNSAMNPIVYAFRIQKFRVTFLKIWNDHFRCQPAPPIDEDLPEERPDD

[4] = target: T4, Adenosine receptor A2a (Homo sapiens, UniProt P29274); assay: Displacement of [3H]CGS21680 from human adenosine A2A receptor expressed in HEK293 cells after 60 mins by liquid scintillation analyzer; type: cell-based
[5] = target: T4, Adenosine receptor A2a; assay: Displacement of [3H]CGS21680 from human adenosine A2 receptor expressed in HEK293 cells at 10 uM after 60 mins by liquid scintillation analyzer relative to control; type: cell-based
[6] = Cytotoxicity against human MRC9 up to 20 uM; type: cell-based
[7] = target: T5, Adenosine receptor A1 (Homo sapiens) (UniProt P30542); assay: Displacement of […] from human adenosine A1 receptor expressed in CHO cells at 10 uM after 60 mins by liquid scintillation analyzer relative to control; type: cell-based
T5 sequence (whole entry): T3 sequence (P30542 whole entry)

[8] = Cytotoxicity against Sprague-Dawley rat microglial cells assessed as effect on cell viability up to 50 uM after 24 hrs by presto blue assay; type: cell-based; conditions: microglia
[9] = target: T2, Adenosine receptor A3; assay: Agonist activity at human adenosine A3 receptor expressed in CHO cells assessed as decrease in forskolin induced cAMP formation preincubated for 10 mins followed by forskolin challenge measured after 15 mins by AlphaScreen assay; type: functional, cell-based
[10] = test system: Microglia; assay: Antimigratory activity in Sprague-Dawley rat microglial cells assessed as inhibition of MCP-1 mediated cell migration at 100 nM after 20 mins by inverted confocal microscopy; type: functional, cell-based

T4 sequence (P29274 whole entry): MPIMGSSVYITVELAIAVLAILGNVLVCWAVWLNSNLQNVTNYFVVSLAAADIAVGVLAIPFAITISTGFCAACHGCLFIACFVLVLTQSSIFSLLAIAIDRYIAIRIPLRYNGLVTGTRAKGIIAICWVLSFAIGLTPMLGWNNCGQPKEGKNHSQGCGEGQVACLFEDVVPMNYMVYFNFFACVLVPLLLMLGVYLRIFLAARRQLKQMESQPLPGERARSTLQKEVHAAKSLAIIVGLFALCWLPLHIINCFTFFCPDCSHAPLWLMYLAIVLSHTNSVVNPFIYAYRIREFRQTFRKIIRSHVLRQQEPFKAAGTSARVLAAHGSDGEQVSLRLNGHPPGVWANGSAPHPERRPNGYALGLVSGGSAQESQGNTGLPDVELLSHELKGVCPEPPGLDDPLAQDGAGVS

SMILES: CNC(=O)[C@H]1[Se][C@@H](n2cnc3c(NCc4cccc(Cl)c4)nc(Cl)nc32)[C@H](O)[C@@H]1O
Activity [1]: 99.7%
Ki [2]: 1.96 nM
Ki [3]: 232 nM
Ki [4]: 238 nM

SMILES: CNC(=O)[C@H]1[Se][C@@H](n2cnc3c(NCc4ccccc4Cl)ncnc32)[C@H](O)[C@@H]1O
Activity [1]: 85%
Ki [2]: 4.41 nM
Ki [3]: 1090 nM
Ki [4]: 1160 nM

SMILES: CNC(=O)[C@H]1[Se][C@@H](n2cnc3c(NC4CC4)ncnc32)[C@H](O)[C@@H]1O
Activity [1]: 92%
inhibition [5]: 54%
Ki [2]: 2.49 nM
Ki [3]: 83.5 nM

Activity [1]: 109%
Ki [2]: 1.76 nM
Ki [3]: 440 nM
Ki [4]: 195 nM
SMILES: CNC(=O)[C@H]1[Se][C@@H](n2cnc3c(NCc4ccc5ccccc5c4)ncnc32)[C@H](O)[C@@H]1O

SMILES: CNC(=O)[C@H]1[Se][C@@H](n2cnc3c(NC4CCCC4)ncnc32)[C@H](O)[C@@H]1O
Activity [1]: 77%
Ki [2]: 7.07 nM
Ki [3]: 25.2 nM
Ki [4]: 1090 nM

SMILES: CNC(=O)[C@H]1[Se][C@@H](n2cnc3c(NCc4cccc(Br)c4)ncnc32)[C@H](O)[C@@H]1O
Activity [1]: 91%
Ki [2]: 0.9 nM
Activity [6]: Non-Toxic
Ki [3]: 220 nM
Ki [4]: 560 nM

SMILES: CNC(=O)[C@H]1[Se][C@@H](n2cnc3c(NC)ncnc32)[C@H](O)[C@@H]1O
Activity [1]: 108%
inhibition [5]: 18%
Ki [2]: 1.49 nM
Ki [3]: 2060 nM

SMILES: CNC(=O)[C@H]1[Se][C@@H](n2cnc3c(NCc4ccccc4OC)ncnc32)[C@H](O)[C@@H]1O
Activity [1]: 97%
Ki [2]: 3.75 nM
Ki [3]: 1880 nM
Ki [4]: 1260 nM

SMILES: CNC(=O)[C@H]1[Se][C@@H](n2cnc3c(NCc4cccc(F)c4)nc(Cl)nc32)[C@H](O)[C@@H]1O
Activity [1]: 106%
inhibition [7]: 37.3%
inhibition [5]: 42%
Ki [2]: 3.35 nM

Activity [1]: 100%
SMILES: CNC(=O)[C@H]1S[C@@H](n2cnc3c(NCc4cccc(I)c4)ncnc32)[C@H](O)[C@@H]1O

SMILES: CNC(=O)[C@H]1[Se][C@@H](n2cnc3c(NCc4cccc(I)c4)nc(Cl)nc32)[C@H](O)[C@@H]1O
Activity [1]: 94.1%
Ki [2]: 4.2 nM
Ki [3]: 311 nM
Ki [4]: 1200 nM

SMILES: CNC(=O)[C@H]1[Se][C@@H](n2cnc3c(N[C@@H]4C[C@H]4c4ccccc4)ncnc32)[C@H](O)[C@@H]1O
Activity [1]: 89%
Ki [2]: 3.93 nM
Ki [3]: 420 nM
Ki [4]: 2480 nM

SMILES: CNC(=O)[C@H]1[Se][C@@H](n2cnc3ncnc(NCc4cccc(I)c4)c32)[C@H](O)[C@@H]1O
Activity [1]: 0.2%
inhibition [7]: 26%
inhibition [5]: 13%
Ki [2]: 4180 nM

SMILES: CNC(=O)[C@H]1[Se][C@@H](n2cnc3c(NC4CC4)nc(Cl)nc32)[C@H](O)[C@@H]1O
Activity [1]: 83.6%
inhibition [5]: 30.3%
Ki [2]: 1.9 nM
Ki [3]: 186 nM

SMILES: CNC(=O)[C@H]1[Se][C@@H](n2cnc3c(NCc4cccc(Br)c4)nc(Cl)nc32)[C@H](O)[C@@H]1O
Activity [1]: 106%
Ki [2]: 1.99 nM
Ki [3]: 156 nM
Ki [4]: 1230 nM

SMILES: CNC(=O)[C@H]1[Se][C@@H](n2cnc3c(NCc4cccc(I)c4)ncnc32)[C@H](O)[C@@H]1O
Activity [1]: 91%
Ki [2]: 0.57 nM
Activity [6]: Non-Toxic
Activity [8]: Non-Toxic
Ki [3]: 480 nM
EC50 [9]: 2.7 nM
Ki [4]: 1080 nM
inhibition [10]: Active

SMILES: CNC(=O)[C@H]1S[C@@H](n2cnc3c(NCc4cccc(I)c4)nc(Cl)nc32)[C@H](O)[C@@H]1O
Activity [8]: Non-Toxic
inhibition [10]: Active

SMILES: CNC(=O)[C@H]1[Se][C@@H](n2cnc3c(NCc4cccc(Cl)c4)ncnc32)[C@H](O)[C@@H]1O
Activity [1]: 80%
Ki [2]: 3.45 nM
Activity [6]: Non-Toxic
Ki [3]: 570 nM
Ki [4]: 555 nM

SMILES: CNC(=O)[C@H]1[Se][C@@H](n2cnc3c(NC4CCC4)nc(Cl)nc32)[C@H](O)[C@@H]1O
Activity [1]: 86.7%
Ki [2]: 1 nM
Ki [3]: 61.7 nM
Ki [4]: 899 nM

SMILES: CNC(=O)[C@H]1[Se][C@@H](n2cnc3nc(Cl)nc(NCc4cccc(I)c4)c32)[C@H](O)[C@@H]1O
Activity [1]: 14%
inhibition [7]: 7%
inhibition [5]: 23%
Ki [2]: 7360 nM

SMILES: CNC(=O)[C@H]1[Se][C@@H](n2cnc3c(NCc4cccc(F)c4)ncnc32)[C@H](O)[C@@H]1O
Activity [1]: 74%
Ki [2]: 2.3 nM
Activity [6]: Non-Toxic
Ki [3]: 3310 nM
Ki [4]: 1350 nM

SMILES: CNC(=O)[C@H]1[Se][C@@H](n2cnc3c(NC4CCCC4)nc(Cl)nc32)[C@H](O)[C@@H]1O
Activity [1]: 92.5%
Ki [2]: 3.56 nM
Ki [3]: 59.4 nM
Ki [4]: 1120 nM

SMILES: CNC(=O)[C@H]1[Se][C@@H](n2cnc3c(NC4CCC4)ncnc32)[C@H](O)[C@@H]1O
Activity [1]: 82%
Ki [2]: 1.39 nM
Ki [3]: 37.5 nM
Ki [4]: 1080 nM
